Experimental data taken from patent US10323022B2, “Pyrrolidinyl urea, pyrrolidinyl thiourea and pyrrolidinyl guanidine compounds as TrkA kinase inhibitors” (Array BioPharma Inc., priority 2011, dated 2019).
Structures can show the parent of a compound that is named as a salt.

Target: TrkA (Homo sapiens (Human), UniProt P04629)
Assay: TrkA Omnia Assay
Type: biochemical
Settings: averaged IC50; 20 nM enzyme, 500 μM ATP, 10 μM peptide substrate
Outline: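 Recombinant TrkA (20 nM) preincubated 10 min at ambient temperature with compound, then Omnia Tyr Peptide #4 (10 μM) and ATP (500 μM) added in 25 mM MOPS pH 7.5, 5 mM MgCl2, 0.005% Triton X-100. Fluorescence (ex 360/em 485 nm) followed continuously for 70 min; IC50 from initial rates by 4- or 5-parameter logistic fit.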

TrkA, sequence (P04629 33-796): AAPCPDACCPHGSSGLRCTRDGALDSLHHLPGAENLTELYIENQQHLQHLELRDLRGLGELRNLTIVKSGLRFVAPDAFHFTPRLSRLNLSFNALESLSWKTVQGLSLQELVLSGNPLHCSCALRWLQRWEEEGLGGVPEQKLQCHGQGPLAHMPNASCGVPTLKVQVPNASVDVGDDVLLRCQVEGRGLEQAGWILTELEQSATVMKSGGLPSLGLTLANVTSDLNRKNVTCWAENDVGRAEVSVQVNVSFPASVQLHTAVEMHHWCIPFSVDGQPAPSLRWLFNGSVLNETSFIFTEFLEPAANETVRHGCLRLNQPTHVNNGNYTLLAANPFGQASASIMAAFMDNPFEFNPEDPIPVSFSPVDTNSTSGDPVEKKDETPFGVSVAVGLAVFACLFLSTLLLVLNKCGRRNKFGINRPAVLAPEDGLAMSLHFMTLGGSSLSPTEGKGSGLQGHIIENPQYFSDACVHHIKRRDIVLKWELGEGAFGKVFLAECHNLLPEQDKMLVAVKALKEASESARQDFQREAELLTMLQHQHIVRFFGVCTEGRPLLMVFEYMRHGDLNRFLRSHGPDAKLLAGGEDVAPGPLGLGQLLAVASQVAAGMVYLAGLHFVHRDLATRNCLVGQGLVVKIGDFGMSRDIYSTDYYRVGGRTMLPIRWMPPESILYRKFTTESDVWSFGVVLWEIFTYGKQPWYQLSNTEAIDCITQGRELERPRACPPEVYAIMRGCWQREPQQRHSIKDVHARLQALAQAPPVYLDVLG

SMILES | IC50 [nM]
O=C(Nc1c2c(nn1-c1ccccc1)CCC2)N[C@@H]1CN(CC(F)(F)F)C[C@H]1c1ccccc1Cl (relative stereo) [Example 212, 1-((trans)-4-(2-chlorophenyl)-1-(2,2,2-trifluoroethyl)pyrrolidin-3-yl)-3-(2-phenyl-2,4,5,6-tetrahydrocyclopenta[c]pyrazol-3-yl)urea] | 1000 to 10000
COCCN1C[C@@H](NC(=O)Nc2cc(-c3ccccc3F)nn2C)[C@H](c2ccc(F)c(F)c2)C1 [Example 115, 1-((3S,4R)-4-(3,4-difluorophenyl)-1-(2-methoxyethyl)pyrrolidin-3-yl)-3-(3-(2-fluoro-phenyl)-1-methyl-1H-pyrazol-5-yl)urea] | < 100
COCCN1C[C@@H](NC(=O)Nc2c(C(N)=O)c(C)nn2-c2ccccc2)[C@H](c2cc(F)cc(Cl)c2)C1 (relative stereo) [Example 625, 5-(3-((trans)-4-(3-chloro-5-fluorophenyl)-1-(2-methoxyethyl)pyrrolidin-3-yl)ureido)-3-methyl-1-phenyl-1H-pyrazole-4-carboxamide] | < 100
COCCN1C[C@@H](NC(=O)Nc2c(C)c(OCCNS(C)(=O)=O)nn2-c2ccccc2)[C@H](c2ccc(F)c(F)c2)C1 [Example 544, N-(2-((5-(3-((3S,4R)-4-(3,4-difluorophenyl)-1-(2-methoxyethyl)pyrrolidin-3-yl)ureido)-4-methyl-1-phenyl-1H-pyrazol-3-yl)oxy)ethyl)methanesulfonamide] | < 100
COCCN1C[C@@H](NC(=O)Nc2c(C)c(OC(=O)N(C)C)nn2-c2ccccc2)[C@H](c2ccc(F)c(F)c2)C1 [Example 396, 5-(3-((3S,4R)-4-(3,4-difluorophenyl)-1-(2-methoxyethyl)pyrrolidin-3-yl)ureido)-4-methyl-1-phenyl-1H-pyrazol-3-yl dimethylcarbamate] | < 100
COCCN1C[C@@H](NC(=O)Nc2c(C)c(-c3ccc(=O)n(C)c3)nn2-c2ccccc2)[C@H](c2ccc(F)c(F)c2)C1 [Example 506, 1-((3S,4R)-4-(3,4-difluorophenyl)-1-(2-methoxyethyl)pyrrolidin-3-yl)-3-(4-methyl-3-(1-methyl-6-oxo-1,6-dihydropyridin-3-yl)-1-phenyl-1H-pyrazol-5-yl)urea] | < 100
COCCN1C[C@@H](NC(=O)Nc2c(C)c(C3CC3)nn2-c2ccccc2)[C@H](c2ccc(F)cc2)C1 [Example 534, 1-(3-cyclopropyl-4-methyl-1-phenyl-1H-pyrazol-5-yl)-3-((3S,4R)-4-(4-fluorophenyl)-1-(2-methoxyethyl)pyrrolidin-3-yl)urea] | < 100
CCOc1nn(-c2ccccc2)c(NC(=O)N[C@@H]2CN(CCOC)C[C@H]2c2cccc(F)c2)c1C [Example 148, 1-(3-ethoxy-4-methyl-1-phenyl-1H-pyrazol-5-yl)-3-((3S,4R)-4-(3-fluorophenyl)-1-(2-methoxyethyl)pyrrolidin-3-yl)urea] | < 100
COCCN1C[C@@H](NC(=O)Nc2c(C)c(-c3cnn(C)c3)nn2-c2ccccc2)[C@H](c2ccc(F)c(Cl)c2)C1 [Example 465, 1-((3S,4R)-4-(3-chloro-4-fluorophenyl)-1-(2-methoxyethyl)pyrrolidin-3-yl)-3-(1′,4-dimethyl-1-phenyl-1H, 1′H-3,4′-bipyrazol-5-yl)urea] | < 100
COCCN1C[C@@H](NC(=O)Nc2c(C)c(OCC#N)nn2-c2ccccc2)[C@H](c2ccc(F)c(F)c2)C1 [Example 141, 1-(3-(cyanomethoxy)-4-methyl-1-phenyl-1H-pyrazol-5-yl)-3-((3S,4R)-4-(3,4-difluorophenyl)-1-(2-methoxyethyl)pyrrolidin-3-yl)urea] | < 100
COCCN1C[C@@H](NC(=O)Nc2c3c(nn2-c2ccccc2)CS(=O)(=O)C3)[C@H](c2ccc(F)c(F)c2)C1 [Example 171, 1-((3S,4R)-4-(3,4-difluorophenyl)-1-(2-methoxyethyl)pyrrolidin-3-yl)-3-(5,5-dioxido-2-phenyl-4,6-dihydro-2H-thieno[3,4-c]pyrazol-3-yl)urea] | < 100
COCCN1C[C@@H](NC(=O)Nc2c(C)c([C@@H]3CCCN3)nn2-c2ccccc2)[C@H](c2cc(F)cc(F)c2)C1 [Example 586, 1-((3S,4R)-4-(3,5-difluorophenyl)-1-(2-methoxyethyl)pyrrolidin-3-yl)-3-(4-methyl-1-phenyl-3-((S)-pyrrolidin-2-yl)-1H-pyrazol-5-yl)urea dihydrochloride] | < 100
Cc1c(-c2cn(C)cn2)nn(-c2ccccc2)c1NC(=O)N[C@@H]1CN(Cc2csnn2)C[C@H]1c1ccc(F)c(F)c1 [Example 252, 1-((3S,4R)-1-((1,2,3-thiadiazol-4-yl)methyl)-4-(3,4-difluorophenyl)pyrrolidin-3-yl)-3-(4-methyl-3-(1-methyl-1H-imidazol-4-yl)-1-phenyl-1H-pyrazol-5-yl)urea] | < 100
COCCN1C[C@@H](NC(=O)Nc2c(Br)c(OC[C@@H](C)O)nn2-c2ccccc2)[C@H](c2cc(F)cc(F)c2)C1 [Example 376, 1-(4-bromo-3-((R)-2-hydroxypropoxy)-1-phenyl-1H-pyrazol-5-yl)-3-((3S,4R)-4-(3,5-difluorophenyl)-1-(2-methoxyethyl)pyrrolidin-3-yl)urea] | < 100
COCCOc1nn(-c2ccccc2)c(NC(=O)N[C@@H]2CN(c3cn[nH]c3)C[C@H]2c2ccc(F)c(F)c2)c1C [Example 226, 1-((3S,4R)-4-(3,4-difluorophenyl)-1-(1H-pyrazol-4-yl)pyrrolidin-3-yl)-3-(3-(2-methoxyethoxy)-4-methyl-1-phenyl-1H-pyrazol-5-yl)urea] | < 100
COCCN1C[C@@H](NC(=O)Nc2c(-c3ccccc3)nn(-c3cnccn3)c2C)[C@H](c2ccc(F)c(F)c2)C1 [Example 638, 1-((3S,4R)-4-(3,4-difluorophenyl)-1-(2-methoxyethyl)pyrrolidin-3-yl)-3-(5-methyl-3-phenyl-1-(pyrazin-2-yl)-1H-pyrazol-4-yl)urea] | < 100
COCCN1C[C@@H](NC(=O)Nc2c(C)c(C3CC3)nn2-c2ccccc2)[C@H](c2ccc(F)c(F)c2)C1 [Example 533, 1-(3-cyclopropyl-4-methyl-1-phenyl-1H-pyrazol-5-yl)-3-((3S,4R)-4-(3,4-difluorophenyl)-1-(2-methoxyethyl)pyrrolidin-3-yl)urea] | < 100
COCCN1C[C@@H](NC(=O)Nc2c3c(nn2-c2ccccc2)CN(C(=O)OC(C)(C)C)C3)[C@H](c2ccccc2)C1 [Example 79, tert-butyl 3-(3-((3S,4R)-1-(2-methoxyethyl)-4-phenylpyrrolidin-3-yl)ureido)-2-phenyl-4,6-dihydropyrrolo[3,4-c] pyrazole-5(2H)-carboxylate] | 1000 to 10000
COCCN1C[C@@H](NC(=O)Nc2cc(-c3ccccc3)nn2C)[C@H](c2cccc(C(F)(F)F)c2)C1 [Example 109, 1-((3S,4R)-1-(2-methoxy-ethyl)-4-(3-(trifluoro-methyl)phenyl)pyrrolidin-3-yl)-3-(1-methyl-3-phenyl-1H-pyrazol-5-yl) urea] | 100 to 1000

The next lines start with the values.

IC50 [nM] | SMILES
< 100 | CNC(=O)c1nn(-c2ccccc2)c(NC(=O)N[C@@H]2CN(CCOC)C[C@H]2c2ccc(F)c(F)c2)c1Br [Example 554, 4-bromo-5-(3-((3S,4R)-4-(3,4-difluorophenyl)-1-(2-methoxyethyl)pyrrolidin-3-yl)ureido)-N-methyl-1-phenyl-1H-pyrazole-3-carboxamide]
< 100 | COCCN1C[C@@H](NC(=O)Nc2c(C)c(C[C@H](C)O)nn2-c2ccccc2)[C@H](c2ccc(F)c(F)c2)C1 [Example 289, 1-((3S,4R)-4-(3,4-difluorophenyl)-1-(2-methoxyethyl)pyrrolidin-3-yl)-3-(3-((S)-2-hydroxypropyl)-4-methyl-1-phenyl-1H-pyrazol-5-yl)urea]
< 100 | COCCN1C[C@@H](NC(=O)Nc2c(C)c(-c3cnc(C)s3)nn2-c2ccccc2)[C@H](c2ccc(F)c(F)c2)C1 [Example 510, 1-((3S,4R)-4-(3,4-difluorophenyl)-1-(2-methoxyethyl)pyrrolidin-3-yl)-3-(4-methyl-3-(2-methylthiazol-5-yl)-1-phenyl-1H-pyrazol-5-yl)urea]
< 100 | COCCN1C[C@@H](NC(=O)Nc2cc(C3CCCC3)nn2-c2ccccc2)[C@H](c2ccccc2)C1 (relative stereo) [Example 24, 1-(3-cyclopentyl-1-phenyl-1H-pyrazol-5-yl)-3-(trans-1-(2-methoxyethyl)-4-phenylpyrrolidin-3-yl)urea]
< 100 | CCOc1nn(-c2ccccc2)c(NC(=O)N[C@@H]2CN(CCOC)C[C@H]2c2ccc(F)c(F)c2)c1Cl [Example 356, 1-(4-chloro-3-ethoxy-1-phenyl-1H-pyrazol-5-yl)-3-((3S,4R)-4-(3,4-difluorophenyl)-1-(2-methoxyethyl)pyrrolidin-3-yl)urea]
< 100 | COCCN1C[C@@H](NC(=O)Nc2c3ccccc3nn2-c2ccccc2)[C@H](c2ccc(F)c(F)c2)C1 [Example 390, 1-((3S,4R)-4-(3,4-difluorophenyl)-1-(2-methoxyethyl)pyrrolidin-3-yl)-3-(2-phenyl-2H-indazol-3-yl)urea]
< 100 | COCCN1C[C@@H](NC(=O)Nc2c(C)c(OCC(N)=O)nn2-c2ccccc2)[C@H](c2ccc(F)c(F)c2)C1 [Example 547, 2-((5-(3-((3S,4R)-4-(3,4-difluorophenyl)-1-(2-methoxyethyl)pyrrolidin-3-yl)ureido)-4-methyl-1-phenyl-1H-pyrazol-3-yl)oxy)acetamide]
< 100 | COCCN1C[C@@H](NC(=O)Nc2c(C)c(-c3cnn(C)c3)nn2-c2cccc(Cl)c2F)[C@H](c2ccc(F)cc2)C1 [Example 323]
< 100 | COCCN1C[C@@H](NC(=O)Nc2cc(-c3cccs3)nn2C)[C@H](c2cc(F)cc(F)c2)C1 [Example 99, 1-((3S,4R)-4-(3,5-difluorophenyl)-1-(2-methoxyethyl)pyrrolidin-3-yl)-3-(1-methyl-3-(thiophen-2-yl)-1H-pyrazol-5-yl)urea]
